This passage reports IC50 and melting point results from patent publication US6855710B2, “Substituted indolines with an inhibitory effect on various kinases and complexes of CDKs” (Boehringer Ingelheim Pharma KG, priority 1998, dated 2005).

Series [1] concerns Leimyosarcoma tumour cell line SK-UT-1B. In words: Inhibition of the proliferation of cultivated human tumour cells (Test 2). The class given is cell-based. To be noted: SK-UT-1B cells, 48 hours' incubation, then 14C-thymidine for a further 24 hours, inhibition of incorporated 14C-thymidine, read-out: Inhibition of SKUT-1B-proliferation IC50. As for the experimental part: Inhibition of the Proliferation of Cultivated Human Tumour Cells
Cells of the Leimyosarcoma tumour cell line SK-UT-1B (obtained from the American Type Culture Collection (ATCC)) were cultivated in Minimum Essential Medium with non-essential amino acids (Gibco), supplemented with sodium pyruvate (1 mmol), glutamine (2 mmol) and 10% foetal calf serum (Gibco) and harvested during the log-growth phase. Then the SK-UT-1B cells were added to Cytostar® multi-well plates (Amersham) at a density of 4000 cells per well and incubated overnight in an incubator. Various concentrations of the compounds (dissolved in DMSO; final concentration: <1%) were added to the cells. After 48 hours' incubation ^14C-thymidine (Amersham) was added to each well and incubation was continued for a further 24 hours. The quantity of ^14C-thymidine incorporated into the tumour cells in the presence of the inhibitor and representing the number of cells in the S phase was measured in a Wallace 1450 Microbeta Liquid Scintillation Counter. IC50 values for the inhibition of proliferation (=inhibition of incorporated ^14C-thymidine) were calculated, correcting for the background radiation. All the measurements were done twice.
The Table which follows contains the results obtained in in vitro test 2: […]

pIC50: −log10 of the molar value. Where two headings read alike, the source gives them in different places.

As usually defined, the melting point is the temperature of the solid-liquid transition. In turn, `CN(C)CCc1ccc(N/C(=C2\C(=O)Nc3ccc([N+](=O)[O-])cc32)c2ccccc2)cc1` [Example 134, (Z)-3-{1-[4-(2-dimethylamino-ethyl)-phenylamino]-1-phenyl-methylidene}-5-nitro-2-indolinone] came in with a melting point of 238 to 240 °C. The pIC50 in series [1] (Homo sapiens, Skut1B) is 6.25.

In turn, `CN(C)Cc1ccc(N/C(=C2\C(=O)Nc3ccc([N+](=O)[O-])cc32)c2ccccc2)cc1` [Example 117, (Z)-3-[1-(4-dimethylaminomethyl-phenylamino)-1-phenyl-methylidene]-5-nitro-2-indolinone] returned a melting point of 264 to 265 °C. For the same compound, the pIC50 in series [1] (Homo sapiens, Skut1B) is 6.47.

For the compound `O=C1Nc2ccc([N+](=O)[O-])cc2/C1=C(/Nc1ccc(CCN2CCOCC2)cc1)c1ccccc1` [Example 133, (Z)-3-{1-[4-(2-morpholinoethyl)-phenylamino]-1-phenyl-methylidene}-5-nitro-2-indolinone], the melting point lay within 304 to 306 °C. For the same compound, the pIC50 in series [1] (Homo sapiens, Skut1B) is 6.32.

With `O=C1Nc2ccc([N+](=O)[O-])cc2/C1=C(/Nc1ccc(CN2CCCCC2)cc1)c1ccccc1` [Example 170, (Z)-3-[1-(4-piperidinomethyl-phenylamino)-1-phenyl-methylidene]-5-nitro-2-indolinone], the melting point fell in the range of 242 to 243 °C. For the same compound, the pIC50 in series [1] (Homo sapiens, Skut1B) is 6.66.

Regarding `CN(C)CCN(c1ccc(N/C(=C2\C(=O)Nc3ccccc32)c2ccccc2)cc1)S(C)(=O)=O` [Example 188], the pIC50 in series [1] is 6.82.

Compound `COC(=O)CNC(=O)c1ccc(/C(Nc2ccc(CN3CCCCC3)cc2)=C2/C(=O)Nc3ccc([N+](=O)[O-])cc32)cc1` [Example 446, (Z)-3-[1-(4-piperidinomethyl-phenylamino)-1-(4-methoxycarbonylmethylaminocarbonyl-phenyl)-methylidene]-5-nitro-2-indolinone] registered a melting point of 230 to 235 °C.

Compound `O=CN(CCN1CCOCC1)c1ccc(N/C(=C2\C(=O)Nc3ccccc32)c2ccccc2)cc1` [Example 347, (Z)-3-{1-[4-(N-(2-morpholinoethyl)-N-formyl-amino)-phenylamino]-1-phenyl-methylidene}-2-indolinone] had a melting point of 218 °C.

Compound `COc1cccc(/C(Nc2ccc(CN(C)C)cc2)=C2/C(=O)Nc3ccccc32)c1` [Example 217, (Z)-3-[1-(4-dimethylaminomethyl-phenylamino)-1-(3-methoxyphenyl)-methylidene]-2-indolinone] returned a melting point of 193 to 194 °C.

As to `COC1CCN(CCc2ccc(N/C(=C3\C(=O)Nc4ccc([N+](=O)[O-])cc43)c3ccccc3)cc2)CC1` [Example 261, (Z)-3-{1-[4-(2-(4-methoxypiperidino)-ethyl)-phenylamino]-1-phenyl-methylidene}-5-nitro-2-indolinone], the melting point lay within 212 to 214 °C.

With `CN(c1ccc(N/C(=C2\C(=O)Nc3ccccc32)c2ccccc2)cc1)S(C)(=O)=O` [Example 186, (Z)-3-{1-[4-(N-methyl-N-methylsulphonyl-amino)-phenylamino]-1-phenyl-methylidene}-2-indolinone], the melting point is 269 °C.

In the case of `CN(Cc1ccc(N/C(=C2\C(=O)Nc3ccc([N+](=O)[O-])cc32)c2ccccc2)cc1)c1ccccn1` [Example 235, (Z)-3-{1-[4-(N-methyl-N-(2-pyridyl)-aminomethyl)-phenylamino]-1-phenyl-methylidene}-5-nitro-2-indolinone], the melting point fell in the range of 213 to 216 °C.

As to `Cl.NC(Cc1ccc(N/C(=C2\C(=O)Nc3ccc([N+](=O)[O-])cc32)c2ccccc2)cc1)C(=O)O` (centres unmarked), the melting point is 225 °C (dec.).

`CCOC(=O)CN(C)C(=O)c1ccc(N/C(=C2\C(=O)Nc3ccccc32)c2ccccc2)cc1` [Example 394, (Z)-3-{1-[4-(N-ethoxycarbonylmethyl-N-methyl-aminocarbonyl)-phenylamino]-1-phenyl-methylidene}-2-indolinone]: the melting point lay within 95 to 98 °C.

As for `COc1ccccc1N/C(=C1\C(=O)Nc2ccccc21)c1ccccc1` [Example 4, (Z)-3-[1-(2-methoxy-phenylamino)-1-phenyl-methylidene]-2-indolinone], the melting point was determined as 237 °C.

In turn, `CCOC(=O)CNS(=O)(=O)c1ccc(N/C(=C2\C(=O)Nc3ccc([N+](=O)[O-])cc32)c2ccccc2)cc1` [Example 410, (Z)-3-{1-[4-(ethoxycarbonylmethylaminosulphonyl)-phenylamino]-1-phenyl-methylidene}-5-nitro-2-indolinone] returned a melting point of 247 to 249 °C.

In the case of `O=C1Nc2ccc([N+](=O)[O-])cc2/C1=C(/Nc1ccc(CNC2CCCC2)cc1)c1ccccc1` [Example 276, (Z)-3-{1-[4-(cyclopentylaminomethyl)-phenylamino]-1-phenyl-methylidene}-5-nitro-2-indolinone], the melting point came to 231 °C.

`CN(c1ccc(N/C(=C2\C(=O)Nc3ccccc32)c2ccccc2)cc1)S(=O)(=O)CCN1CCOCC1` [Example 384, (Z)-3-{1-[4-(N-(2-morpholinoethylsulphonyl)-N-methyl-amino)-phenylamino]-1-phenyl-methylidene}-2-indolinone] came in with a melting point of 115 to 117 °C.

For the compound `CN(C)Cc1ccc(N/C(=C2\C(=O)Nc3ccc([N+](=O)[O-])cc32)c2cccc(Cl)c2)cc1` [Example 224, (Z)-3-[1-(4-dimethylaminomethyl-phenylamino)-1-(3-chlorophenyl)-methylidene]-5-nitro-2-indolinone], the melting point is 274 °C.

In turn, `CCS(=O)(=O)N(CC(=O)NCCN(C)C)c1ccc(N/C(=C2\C(=O)Nc3ccc([N+](=O)[O-])cc32)c2ccccc2)cc1` [Example 295, (Z)-3-{1-[4-(N-(2-dimethylamino-ethylaminocarbonylmethyl)-N-ethylsulphonyl-amino)-phenylamino]-1-phenyl-methylidene}-5-nitro-2-indolinone] showed a melting point of 155 °C.
